What was measured:
Assay in all cases: relative viability (nuclei count vs DMSO), 5 days (fraction); higher = more cells survive
[1] = compound: O=c1[nH]cc(F)c(=O)[nH]1 [5-Fluorouracil] + Cc1cc(Nc2cc(N3CCN(C)CC3)nc(Sc3ccc(NC(=O)C4CC4)cc3)n2)n[nH]1 [Tozasertib] (partner 0.1 µM)
Summary of the method: (§1)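 The day after seeding in 1536-well plates, lung cancer cell lines were treated by pin tool with a single drug, or with a fixed anchor-drug dose together with five library-drug doses (not always all listed) in √10 steps. After 5 days, a combined fix-and-stain solution (final 0.05% Triton X-100, 1% formaldehyde, 1 ug/ml Hoechst) was added. Nuclei counted on 4× images gave relative viability as treated counts over vehicle counts, reported as the median of duplicate plates.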

[2] = compound: O=c1[nH]cc(F)c(=O)[nH]1 [5-Fluorouracil] + Cc1nc(NC(=O)N2CCC[C@H]2C(N)=O)sc1-c1ccnc(C(C)(C)C(F)(F)F)c1 [Alpelisib] (partner 2 µM)
Summary of the method: as §1

[3] = compound: O=c1[nH]cc(F)c(=O)[nH]1 [5-Fluorouracil] + COc1cccc2cc(-c3nc([C@H]4CC[C@H](C(=O)O)CC4)n4ncnc(N)c34)[nH]c12 [OSI-027] (partner 0.5 µM)
Summary of the method: as §1

[4] = compound: O=c1[nH]cc(F)c(=O)[nH]1 [5-Fluorouracil] + C[C@@H](Oc1cc(-c2cnn(C3CCNCC3)c2)cnc1N)c1c(Cl)ccc(F)c1Cl [Crizotinib] (partner 1 µM)
Summary of the method: as §1

[5] = compound: O=c1[nH]cc(F)c(=O)[nH]1 [5-Fluorouracil] + COc1cc2c(Oc3ccc(NC(=O)C4(C(=O)Nc5ccc(F)cc5)CC4)cc3F)ccnc2cc1OCCCN1CCOCC1 [Foretinib] (partner 0.25 µM)
Summary of the method: as §1

With NCI-H1734 the relative viability ([1]; first compound 0.02 µM) was 0.249, the relative viability ([1]; first compound 0.2 µM) was 0.261 and the relative viability ([1]; first compound 0.6325 µM) was 0.241. It also gave a relative viability ([1]; first compound 2 µM) of 0.237, a relative viability ([2]; first compound 0.02 µM) of 0.559 and a relative viability ([2]; first compound 0.2 µM) of 0.756. It also gave a relative viability ([2]; first compound 0.6325 µM) of 0.582, a relative viability ([2]; first compound 2 µM) of 0.529 and a relative viability ([3]; first compound 0.02 µM) of 0.58. For the same cell line, the relative viability ([3]; first compound 0.2 µM) was 0.655, the relative viability ([3]; first compound 0.6325 µM) was 0.513 and the relative viability ([3]; first compound 2 µM) was 0.398. It also gave a relative viability ([4]; first compound 0.02 µM) of 0.709, a relative viability ([4]; first compound 0.2 µM) of 0.742 and a relative viability ([4]; first compound 0.6325 µM) of 0.533. The relative viability ([4]; first compound 2 µM) was 0.37, the relative viability ([5]; first compound 0.02 µM) was 0.859 and the relative viability ([5]; first compound 0.2 µM) was 0.881. For the same cell line, the relative viability ([5]; first compound 0.6325 µM) was 0.756 and the relative viability ([5]; first compound 2 µM) was 0.46.
In the case of NCI-H1755, the relative viability ([1]; first compound 0.02 µM) is reported as 0.643, the relative viability ([1]; first compound 0.2 µM) is reported as 0.523 and the relative viability ([1]; first compound 0.6325 µM) is reported as 0.309. For the same cell line, the relative viability ([1]; first compound 2 µM) was 0.28, the relative viability ([2]; first compound 0.02 µM) was 0.896 and the relative viability ([2]; first compound 0.2 µM) was 0.74. The relative viability ([2]; first compound 0.6325 µM) was 0.294, the relative viability ([2]; first compound 2 µM) was 0.259 and the relative viability ([3]; first compound 0.02 µM) was 0.703. For the same cell line, the relative viability ([3]; first compound 0.2 µM) was 0.702, the relative viability ([3]; first compound 0.6325 µM) was 0.389 and the relative viability ([3]; first compound 2 µM) was 0.264. It also gave a relative viability ([4]; first compound 0.02 µM) of 0.838, a relative viability ([4]; first compound 0.2 µM) of 0.655 and a relative viability ([4]; first compound 0.6325 µM) of 0.313. The relative viability ([4]; first compound 2 µM) was 0.258, the relative viability ([5]; first compound 0.02 µM) was 0.909 and the relative viability ([5]; first compound 0.2 µM) was 0.854. It also gave a relative viability ([5]; first compound 0.6325 µM) of 0.365 and a relative viability ([5]; first compound 2 µM) of 0.319.
Cell Line NCI-H1915 has a relative viability ([1]; first compound 0.02 µM) of 0.376, a relative viability ([1]; first compound 0.2 µM) of 0.418 and a relative viability ([1]; first compound 0.6325 µM) of 0.433. It also gave a relative viability ([1]; first compound 2 µM) of 0.331, a relative viability ([2]; first compound 0.02 µM) of 1.04 and a relative viability ([2]; first compound 0.2 µM) of 1.04. For the same cell line, the relative viability ([2]; first compound 0.6325 µM) was 0.963, the relative viability ([2]; first compound 2 µM) was 0.83 and the relative viability ([3]; first compound 0.02 µM) was 0.561. It also gave a relative viability ([3]; first compound 0.2 µM) of 0.616, a relative viability ([3]; first compound 0.6325 µM) of 0.591 and a relative viability ([3]; first compound 2 µM) of 0.525. It also gave a relative viability ([4]; first compound 0.02 µM) of 0.819, a relative viability ([4]; first compound 0.2 µM) of 0.949 and a relative viability ([4]; first compound 0.6325 µM) of 0.824. The relative viability ([4]; first compound 2 µM) was 0.619, the relative viability ([5]; first compound 0.02 µM) was 1.01 and the relative viability ([5]; first compound 0.2 µM) was 1.09. For the same cell line, the relative viability ([5]; first compound 0.6325 µM) was 1.06 and the relative viability ([5]; first compound 2 µM) was 0.81.
NCI-H1944 gave a relative viability ([1]; first compound 0.02 µM) of 0.253, a relative viability ([1]; first compound 0.2 µM) of 0.256 and a relative viability ([1]; first compound 0.6325 µM) of 0.218. It also gave a relative viability ([1]; first compound 2 µM) of 0.153, a relative viability ([2]; first compound 0.02 µM) of 0.804 and a relative viability ([2]; first compound 0.2 µM) of 0.763. It also gave a relative viability ([2]; first compound 0.6325 µM) of 0.351, a relative viability ([2]; first compound 2 µM) of 0.211 and a relative viability ([3]; first compound 0.02 µM) of 0.48. It also gave a relative viability ([3]; first compound 0.2 µM) of 0.423, a relative viability ([3]; first compound 0.6325 µM) of 0.296 and a relative viability ([3]; first compound 2 µM) of 0.188. The relative viability ([4]; first compound 0.02 µM) was 0.993, the relative viability ([4]; first compound 0.2 µM) was 0.92 and the relative viability ([4]; first compound 0.6325 µM) was 0.392. The relative viability ([4]; first compound 2 µM) was 0.193, the relative viability ([5]; first compound 0.02 µM) was 0.834 and the relative viability ([5]; first compound 0.2 µM) was 0.702. The relative viability ([5]; first compound 0.6325 µM) was 0.314 and the relative viability ([5]; first compound 2 µM) was 0.184.
With NCI-H1975 the relative viability ([1]; first compound 0.02 µM) was 0.847, the relative viability ([1]; first compound 0.2 µM) was 0.707 and the relative viability ([1]; first compound 0.6325 µM) was 0.386. For the same cell line, the relative viability ([1]; first compound 2 µM) was 0.201, the relative viability ([2]; first compound 0.02 µM) was 0.57 and the relative viability ([2]; first compound 0.2 µM) was 0.723. It also gave a relative viability ([2]; first compound 0.6325 µM) of 0.465, a relative viability ([2]; first compound 2 µM) of 0.293 and a relative viability ([3]; first compound 0.02 µM) of 0.793. It also gave a relative viability ([3]; first compound 0.2 µM) of 0.793, a relative viability ([3]; first compound 0.6325 µM) of 0.417 and a relative viability ([3]; first compound 2 µM) of 0.26. For the same cell line, the relative viability ([4]; first compound 0.02 µM) was 1, the relative viability ([4]; first compound 0.2 µM) was 1.01 and the relative viability ([4]; first compound 0.6325 µM) was 0.429. The relative viability ([4]; first compound 2 µM) was 0.263, the relative viability ([5]; first compound 0.02 µM) was 0.999 and the relative viability ([5]; first compound 0.2 µM) was 0.898. For the same cell line, the relative viability ([5]; first compound 0.6325 µM) was 0.469 and the relative viability ([5]; first compound 2 µM) was 0.259.
NCI-H1993 gave a relative viability ([1]; first compound 0.02 µM) of 0.556, a relative viability ([1]; first compound 0.2 µM) of 0.61 and a relative viability ([1]; first compound 0.6325 µM) of 0.585. It also gave a relative viability ([1]; first compound 2 µM) of 0.554, a relative viability ([2]; first compound 0.02 µM) of 0.687 and a relative viability ([2]; first compound 0.2 µM) of 0.569. It also gave a relative viability ([2]; first compound 0.6325 µM) of 0.608, a relative viability ([2]; first compound 2 µM) of 0.698 and a relative viability ([3]; first compound 0.02 µM) of 0.565. For the same cell line, the relative viability ([3]; first compound 0.2 µM) was 0.501, the relative viability ([3]; first compound 0.6325 µM) was 0.538 and the relative viability ([3]; first compound 2 µM) was 0.537. For the same cell line, the relative viability ([4]; first compound 0.02 µM) was 0.773, the relative viability ([4]; first compound 0.2 µM) was 0.839 and the relative viability ([4]; first compound 0.6325 µM) was 0.645. For the same cell line, the relative viability ([4]; first compound 2 µM) was 0.622, the relative viability ([5]; first compound 0.02 µM) was 0.741 and the relative viability ([5]; first compound 0.2 µM) was 0.728. It also gave a relative viability ([5]; first compound 0.6325 µM) of 0.706 and a relative viability ([5]; first compound 2 µM) of 0.667.
Work on NCI-H2009 yielded a relative viability ([1]; first compound 0.02 µM) of 0.802, a relative viability ([1]; first compound 0.2 µM) of 0.793 and a relative viability ([1]; first compound 0.6325 µM) of 0.684. For the same cell line, the relative viability ([1]; first compound 2 µM) was 0.474, the relative viability ([2]; first compound 0.02 µM) was 1.17 and the relative viability ([2]; first compound 0.2 µM) was 1.15. For the same cell line, the relative viability ([2]; first compound 0.6325 µM) was 0.937, the relative viability ([2]; first compound 2 µM) was 0.607 and the relative viability ([3]; first compound 0.02 µM) was 0.618. It also gave a relative viability ([3]; first compound 0.2 µM) of 0.674, a relative viability ([3]; first compound 0.6325 µM) of 0.478 and a relative viability ([3]; first compound 2 µM) of 0.379. The relative viability ([4]; first compound 0.02 µM) was 1.12, the relative viability ([4]; first compound 0.2 µM) was 0.989 and the relative viability ([4]; first compound 0.6325 µM) was 0.765. The relative viability ([4]; first compound 2 µM) was 0.646, the relative viability ([5]; first compound 0.02 µM) was 1.31 and the relative viability ([5]; first compound 0.2 µM) was 1.27. It also gave a relative viability ([5]; first compound 0.6325 µM) of 1.12 and a relative viability ([5]; first compound 2 µM) of 0.669.
Cell Line NCI-H2023 has a relative viability ([1]; first compound 0.02 µM) of 0.441, a relative viability ([1]; first compound 0.2 µM) of 0.146 and a relative viability ([1]; first compound 0.6325 µM) of 0.112. The relative viability ([1]; first compound 2 µM) was 0.0913, the relative viability ([2]; first compound 0.02 µM) was 0.456 and the relative viability ([2]; first compound 0.2 µM) was 0.256. It also gave a relative viability ([2]; first compound 0.6325 µM) of 0.124, a relative viability ([2]; first compound 2 µM) of 0.0987 and a relative viability ([3]; first compound 0.02 µM) of 0.369. For the same cell line, the relative viability ([3]; first compound 0.2 µM) was 0.176, the relative viability ([3]; first compound 0.6325 µM) was 0.103 and the relative viability ([3]; first compound 2 µM) was 0.0879. For the same cell line, the relative viability ([4]; first compound 0.02 µM) was 0.621, the relative viability ([4]; first compound 0.2 µM) was 0.189 and the relative viability ([4]; first compound 0.6325 µM) was 0.105. It also gave a relative viability ([4]; first compound 2 µM) of 0.106, a relative viability ([5]; first compound 0.02 µM) of 0.757 and a relative viability ([5]; first compound 0.2 µM) of 0.243. For the same cell line, the relative viability ([5]; first compound 0.6325 µM) was 0.159 and the relative viability ([5]; first compound 2 µM) was 0.0994.

From the supplement of paper PMC10307832
